Among the data in ChEMBL document CHEMBL4219047, “Optimization of peptide-based polyagonists for treatment of diabetes and obesity” (Bioorg Med Chem, 2018) are EC50, Activity and Ratio EC50 values, retold here.

Experiment [1] has as its target T1, Gastric inhibitory polypeptide receptor (Homo sapiens, UniProt P48546).
T1 sequence (P48546 whole entry): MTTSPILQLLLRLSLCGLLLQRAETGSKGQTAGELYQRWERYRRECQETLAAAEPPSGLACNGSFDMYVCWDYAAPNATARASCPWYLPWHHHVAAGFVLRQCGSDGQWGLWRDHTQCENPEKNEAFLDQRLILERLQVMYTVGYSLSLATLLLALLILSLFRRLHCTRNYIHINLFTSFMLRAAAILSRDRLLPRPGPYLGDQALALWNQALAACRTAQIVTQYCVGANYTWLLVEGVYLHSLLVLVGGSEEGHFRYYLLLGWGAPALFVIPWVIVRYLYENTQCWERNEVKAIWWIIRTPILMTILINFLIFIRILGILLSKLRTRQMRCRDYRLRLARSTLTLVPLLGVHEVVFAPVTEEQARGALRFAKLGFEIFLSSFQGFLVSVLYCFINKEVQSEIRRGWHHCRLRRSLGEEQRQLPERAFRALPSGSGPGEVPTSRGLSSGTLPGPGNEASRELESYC
The experiment in a line: Agonist activity at human GIP receptor expressed in HEK293 cells assessed as increase in cAMP level after 5 hrs by CRE driven luciferase reporter gene assay. Format: functional, cell-based.

Experiment [2] addresses T2, Glucagon-like peptide 1 receptor (Homo sapiens, UniProt P43220). Put plainly: Agonist activity at human GLP1 receptor expressed in HEK293 cells assessed as increase in cAMP level after 5 hrs by CRE driven luciferase reporter gene assay relative to GLP1. Set-up: concentration or dose not given beside the values. Format: functional, cell-based.
Experiment [3] has as its target T3, Glucagon receptor (Homo sapiens, UniProt P47871). The experiment in a line: Agonist activity at human GCG receptor expressed in HEK293 cells assessed as increase in cAMP level after 5 hrs by CRE driven luciferase reporter gene assay relative to glucagon. Format: functional, cell-based.
Experiment [4] deals with T4, Gastric inhibitory polypeptide receptor (Homo sapiens) (UniProt P48546).
T4 sequence (whole entry): T1 sequence (P48546 whole entry)
The experiment in a line: Agonist activity at human GIP receptor expressed in HEK293 cells assessed as increase in cAMP level after 5 hrs by CRE driven luciferase reporter gene assay relative to GIP. The format is functional, cell-based. Also noted: concentration or dose not given beside the values.

Experiment [5] has as its target T3, Glucagon receptor. The experiment in a line: Agonist activity at human GCG receptor expressed in HEK293 cells assessed as increase in cAMP level after 5 hrs by CRE driven luciferase reporter gene assay. Format: functional, cell-based.
Experiment [6] deals with T2, Glucagon-like peptide 1 receptor. The experiment in a line: Agonist activity at human GLP1 receptor expressed in HEK293 cells assessed as increase in cAMP level after 5 hrs by CRE driven luciferase reporter gene assay. Format: functional, cell-based.
Experiment [7] shares this target. Put plainly: Agonist activity at human GLP1 receptor expressed in CHO cells assessed as increase in cAMP level by TR-FRET assay. Format: functional, cell-based.
Experiment [8] is filed under the species Mus musculus. Put plainly: Selectivity ratio of EC50 for mouse GLP1 receptor to EC50 for mouse GCG receptor.
Experiment [9] concerns the target T5, Glucagon-like peptide 1 receptor (Mus musculus, UniProt O35659).
T5 sequence (O35659 whole entry): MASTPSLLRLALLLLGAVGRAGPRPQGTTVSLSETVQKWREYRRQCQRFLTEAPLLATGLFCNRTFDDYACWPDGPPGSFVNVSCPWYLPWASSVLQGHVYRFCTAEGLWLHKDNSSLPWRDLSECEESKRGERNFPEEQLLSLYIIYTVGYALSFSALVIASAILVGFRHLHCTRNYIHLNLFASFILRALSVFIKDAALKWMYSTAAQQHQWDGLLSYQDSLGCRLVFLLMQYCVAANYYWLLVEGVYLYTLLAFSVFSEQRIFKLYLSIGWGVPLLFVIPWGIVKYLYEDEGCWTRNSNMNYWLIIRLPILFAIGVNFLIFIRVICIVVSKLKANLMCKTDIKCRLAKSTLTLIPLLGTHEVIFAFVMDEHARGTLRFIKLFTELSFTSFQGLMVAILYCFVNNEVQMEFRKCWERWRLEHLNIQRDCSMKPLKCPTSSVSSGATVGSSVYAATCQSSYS
Put plainly: Agonist activity at mouse GLP1 receptor expressed in CHO cells assessed as increase in cAMP level by TR-FRET assay. Format: functional, cell-based.

The target in experiment [10] is Glucagon receptor (Mus musculus, UniProt Q61606). Put plainly: Agonist activity at mouse GCG receptor expressed in CHO cells assessed as increase in cAMP level by TR-FRET assay. Format: functional, cell-based.
Glucagon receptor (Mus musculus, UniProt Q61606), sequence (Q61606 whole entry): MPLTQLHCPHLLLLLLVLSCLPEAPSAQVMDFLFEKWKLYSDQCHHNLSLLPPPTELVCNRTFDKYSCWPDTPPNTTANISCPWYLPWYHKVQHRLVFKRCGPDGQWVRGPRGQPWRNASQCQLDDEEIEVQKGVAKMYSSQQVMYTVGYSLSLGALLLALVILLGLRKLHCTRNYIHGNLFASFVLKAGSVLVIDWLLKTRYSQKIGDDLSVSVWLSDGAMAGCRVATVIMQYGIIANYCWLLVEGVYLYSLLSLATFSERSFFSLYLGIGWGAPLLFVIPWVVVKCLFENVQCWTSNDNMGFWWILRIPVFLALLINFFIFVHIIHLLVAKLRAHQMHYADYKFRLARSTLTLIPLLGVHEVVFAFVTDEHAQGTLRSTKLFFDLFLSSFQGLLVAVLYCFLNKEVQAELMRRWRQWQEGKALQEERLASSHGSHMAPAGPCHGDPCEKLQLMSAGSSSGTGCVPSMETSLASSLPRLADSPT
Experiment [11] concerns the target T3, Glucagon receptor. The experiment in a line: Agonist activity at human GCG receptor expressed in CHO cells assessed as increase in cAMP level by TR-FRET assay relative to glucagon. The format is functional, cell-based.
Experiment [12] deals with T3, Glucagon receptor. Put plainly: Agonist activity at human GCG receptor expressed in CHO cells assessed as increase in cAMP level by TR-FRET assay. Format: functional, cell-based.

T2 sequence (P43220 whole entry): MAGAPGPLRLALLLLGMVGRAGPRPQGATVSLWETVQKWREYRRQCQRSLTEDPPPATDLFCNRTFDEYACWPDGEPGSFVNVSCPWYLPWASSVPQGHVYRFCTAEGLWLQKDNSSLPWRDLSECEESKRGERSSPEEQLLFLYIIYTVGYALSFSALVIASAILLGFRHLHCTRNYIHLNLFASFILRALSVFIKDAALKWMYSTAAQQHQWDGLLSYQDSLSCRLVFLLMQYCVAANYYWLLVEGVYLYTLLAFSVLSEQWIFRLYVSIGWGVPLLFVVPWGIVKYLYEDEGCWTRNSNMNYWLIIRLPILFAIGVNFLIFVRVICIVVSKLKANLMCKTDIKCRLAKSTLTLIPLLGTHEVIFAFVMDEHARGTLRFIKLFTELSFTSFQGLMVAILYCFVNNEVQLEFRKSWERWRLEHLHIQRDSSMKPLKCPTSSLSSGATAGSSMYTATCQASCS
T3 sequence (P47871 whole entry): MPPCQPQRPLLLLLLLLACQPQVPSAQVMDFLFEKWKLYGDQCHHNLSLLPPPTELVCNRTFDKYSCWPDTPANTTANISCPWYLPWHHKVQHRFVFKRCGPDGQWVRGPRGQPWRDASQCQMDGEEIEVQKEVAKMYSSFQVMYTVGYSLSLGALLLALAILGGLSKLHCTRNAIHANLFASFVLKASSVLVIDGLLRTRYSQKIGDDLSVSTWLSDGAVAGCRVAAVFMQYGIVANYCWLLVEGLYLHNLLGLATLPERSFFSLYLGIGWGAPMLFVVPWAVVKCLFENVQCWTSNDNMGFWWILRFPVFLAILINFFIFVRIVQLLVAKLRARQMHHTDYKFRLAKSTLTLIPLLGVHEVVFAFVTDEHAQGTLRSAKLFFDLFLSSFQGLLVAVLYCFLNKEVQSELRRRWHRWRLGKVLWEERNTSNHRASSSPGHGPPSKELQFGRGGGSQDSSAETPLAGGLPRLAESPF

In the case of `CCCCCCCCCCCCCCCC(=O)N[C@@H](CCC(=O)NCCCC[C@H](NC(=O)[C@H](CC(=O)O)NC(=O)[C@H](CO)NC(=O)[C@@H](NC(=O)[C@H](Cc1ccccc1)NC(=O)[C@@H](NC(=O)CNC(=O)[C@H](CCC(N)=O)NC(=O)C(C)(C)NC(=O)[C@@H](N)Cc1cnc[nH]1)[C@@H](C)O)[C@@H](C)O)C(=O)N[C@@H](CO)C(=O)N[C@@H](CCCCN)C(=O)N[C@@H](Cc1ccc(O)cc1)C(=O)N[C@@H](CC(C)C)C(=O)N[C@@H](CC(=O)O)C(=O)N[C@@H](CCC(=O)O)C(=O)N[C@@H](CCCNC(=N)N)C(=O)N[C@@H](C)C(=O)N[C@@H](C)C(=O)N[C@@H](CCC(N)=O)C(=O)N[C@@H](CC(=O)O)C(=O)N[C@@H](Cc1ccccc1)C(=O)N[C@H](C(=O)N[C@@H](CCC(N)=O)C(=O)N[C@@H](Cc1c[nH]c2ccccc12)C(=O)N[C@@H](CC(C)C)C(=O)N[C@@H](CC(C)C)C(=O)N[C@@H](CC(=O)O)C(=O)N[C@H](C(N)=O)[C@@H](C)O)C(C)C)C(=O)O`, the EC50 was determined as 2.03 nM in experiment [1], 0.005 nM in [5] and 0.068 nM in [6]. Moreover, the Activity in experiment [2] came out at 41%; in [3], 640%; in experiment [4], 1%.

Regarding `CCCCCCCCCCCCCCCC(=O)N[C@@H](CCC(=O)NCCCC[C@H](NC(=O)[C@H](CC(=O)O)NC(=O)[C@H](CO)NC(=O)[C@@H](NC(=O)[C@H](Cc1ccccc1)NC(=O)[C@@H](NC(=O)CNC(=O)[C@H](CCC(N)=O)NC(=O)[C@@H](CO)NC(=O)[C@@H](N)Cc1cnc[nH]1)[C@@H](C)O)[C@@H](C)O)C(=O)N[C@@H](CO)C(=O)N[C@@H](CCCCN)C(=O)N[C@@H](Cc1ccc(O)cc1)C(=O)N[C@@H](CC(C)C)C(=O)N[C@@H](CC(=O)O)C(=O)N[C@@H](CCC(=O)O)C(=O)N[C@@H](CCCNC(=N)N)C(=O)N[C@@H](C)C(=O)N[C@@H](C)C(=O)N[C@@H](CCC(N)=O)C(=O)N[C@@H](CC(=O)O)C(=O)N[C@@H](Cc1ccccc1)C(=O)N[C@H](C(=O)N[C@@H](CCC(N)=O)C(=O)N[C@@H](Cc1c[nH]c2ccccc12)C(=O)N[C@@H](CC(C)C)C(=O)N[C@@H](CC(C)C)C(=O)N[C@@H](CC(=O)O)C(=O)N[C@H](C(N)=O)[C@@H](C)O)C(C)C)C(=O)O`, the results for the EC50 in experiment [1], in experiment [5] and in experiment [6] were 1.65 nM, 0.006 nM and 0.003 nM, respectively. In addition, the Activity in experiment [2] turned out to be 933%; in [3] it was 533%; in experiment [4] it was 1%.

In the case of `CCCCCCCCCCCCCCCC(=O)N[C@@H](CCC(=O)NCCCC[C@H](NC(=O)[C@H](CC(=O)O)NC(=O)[C@H](CO)NC(=O)[C@@H](NC(=O)[C@H](Cc1ccccc1)NC(=O)[C@@H](NC(=O)CNC(=O)[C@H](CCC(N)=O)NC(=O)[C@@H](CO)NC(=O)[C@@H](N)Cc1cnc[nH]1)[C@@H](C)O)[C@@H](C)O)C(=O)N[C@@H](CO)C(=O)N[C@@H](CCCCN)C(=O)N[C@@H](Cc1ccc(O)cc1)C(=O)N[C@@H](CC(C)C)C(=O)N[C@@H](CC(=O)O)C(=O)N[C@@H](CCC(=O)O)C(=O)N[C@@H](CCC(N)=O)C(=O)N[C@@H](C)C(=O)N[C@@H](C)C(=O)N[C@@H](CCCCN)C(=O)N[C@@H](CCC(=O)O)C(=O)N[C@@H](Cc1ccccc1)C(=O)N[C@H](C(=O)N[C@@H](C)C(=O)N[C@@H](Cc1c[nH]c2ccccc12)C(=O)N[C@@H](CC(C)C)C(=O)N[C@@H](CCSC)C(=O)N[C@@H](CC(N)=O)C(=O)N[C@H](C(N)=O)[C@@H](C)O)[C@@H](C)CC)C(=O)O`, the results for the EC50 in experiment [1], in experiment [5] and in experiment [6] were 2.69 nM, 0.041 nM and 0.039 nM, respectively. The Activity is 72% in experiment [2], 78% in experiment [3] and 1% in [4].

With `CCCCCCCCCCCCCCCC(=O)N[C@@H](CCC(=O)NCCCC[C@H](NC(=O)[C@H](CC(=O)O)NC(=O)[C@H](CO)NC(=O)[C@@H](NC(=O)[C@H](Cc1ccccc1)NC(=O)[C@@H](NC(=O)CNC(=O)[C@H](CCC(N)=O)NC(=O)C(C)(C)NC(=O)[C@@H](N)Cc1cnc[nH]1)[C@@H](C)O)[C@@H](C)O)C(=O)N[C@@H](CO)C(=O)N[C@@H](CCCCN)C(=O)N[C@@H](Cc1ccc(O)cc1)C(=O)N[C@@H](CC(C)C)C(=O)N[C@@H](CC(=O)O)C(=O)N[C@@H](CCC(=O)O)C(=O)N[C@@H](CCC(N)=O)C(=O)N[C@@H](C)C(=O)N[C@@H](C)C(=O)N[C@@H](CCCCN)C(=O)N[C@@H](CCC(=O)O)C(=O)N[C@@H](Cc1ccccc1)C(=O)N[C@H](C(=O)N[C@@H](C)C(=O)N[C@@H](Cc1c[nH]c2ccccc12)C(=O)N[C@@H](CC(C)C)C(=O)N[C@@H](CC(C)C)C(=O)N[C@@H](CC(=O)O)C(=O)N[C@H](C(N)=O)[C@@H](C)O)[C@@H](C)CC)C(=O)O`, the EC50 is 3.54 nM in experiment [1], 0.003 nM in [5] and 0.003 nM in experiment [6]. The Activity in [2] was 933%; in experiment [3] it was 1070%; in experiment [4], 1%.

For the compound `CC[C@H](C)[C@H](NC(=O)[C@H](Cc1ccccc1)NC(=O)[C@H](CCC(=O)O)NC(=O)[C@H](CCCCN)NC(=O)[C@H](C)NC(=O)[C@H](C)NC(=O)[C@H](CCC(N)=O)NC(=O)CNC(=O)[C@H](CCC(=O)O)NC(=O)[C@H](CC(C)C)NC(=O)[C@H](Cc1ccc(O)cc1)NC(=O)[C@H](CCCCN)NC(=O)[C@H](CO)NC(=O)[C@@H](NC(=O)[C@H](CC(=O)O)NC(=O)[C@H](CO)NC(=O)[C@@H](NC(=O)[C@H](Cc1ccccc1)NC(=O)[C@@H](NC(=O)CNC(=O)[C@H](CCC(=O)O)NC(=O)[C@H](C)NC(=O)[C@@H](N)Cc1cnc[nH]1)[C@@H](C)O)[C@@H](C)O)C(C)C)C(=O)N[C@@H](C)C(=O)N[C@@H](Cc1c[nH]c2ccccc12)C(=O)N[C@@H](CC(C)C)C(=O)N[C@H](C(=O)N[C@@H](CCCCN)C(=O)NCC(=O)N[C@@H](CCCNC(=N)N)C(N)=O)C(C)C`, the EC50 is 0.09 nM in experiment [7], 0.03 nM in [9], above 100 nM in experiment [10] and above 1000 nM in experiment [12]. Also, the Ratio EC50 in [8] is below 0.001. The Activity in experiment [11] was below 0.05%.
